Values quoted from earlier work as cited in PubChem BioAssay AID1259409 (Chemical Carcinogenesis Research Information System (CCRIS), 2018).

Tested on: rodent chemically induced tumor inhibition, incidence and multiplicity
Assay: CCRIS tumor inhibitor studies
Conditions: Route [Inhibitor]: ORAL, Species: RAT, Promoter: NONE USED

O=P(O)(O)OC1C(OP(=O)(O)O)C(OP(=O)(O)O)C(OP(=O)(O)O)C(OP(=O)(O)O)C1OP(=O)(O)O (stereo unspecified)
tumour outcome (control, treated, inhibition, significance) (Carcinogen: 7,12-DIMETHYLBENZ[A]ANTHRACENE, 57-97-6, Dose [Inhibitor]: 0, 2% IN DIET FOR 35 WK BEGINNING POST CARCINOGEN DOSE (STUDY DURATION: 36 WK), Strain/Sex: SPRAGUE-DAWLEY/FEMALE, Target Tissue: Type of Lesion: EAR DUCT: TUMOR, Dose [Carcinogen]: 50 MG/KG BW IN CORN OIL ONCE): 5/15 (33%), 2/15 (13%), 61%, not significant | tumour outcome (control, treated, inhibition, significance) (Carcinogen: 7,12-DIMETHYLBENZ[A]ANTHRACENE, 57-97-6, Dose [Inhibitor]: 0, 2% IN DIET FOR 35 WK BEGINNING POST CARCINOGEN DOSE (STUDY DURATION: 36 WK), Strain/Sex: SPRAGUE-DAWLEY/FEMALE, Target Tissue: Type of Lesion: MAMMARY GLAND: ADENOCARCINOMA OR FIBROADENOMA, Dose [Carcinogen]: 50 MG/KG BW IN CORN OIL ONCE): 14/15 (93%), 15/15 (100%), -8%, not significant | tumour outcome (control, treated, inhibition, significance) (Carcinogen: 7,12-DIMETHYLBENZ[A]ANTHRACENE, 57-97-6, Dose [Inhibitor]: 0, 15 MILLIMOLAR IN DRINKING WATER BEGINNING 1 WK PRIOR TO CARCINOGEN DOSE AND CONTINUING FOR 16 WK (STUDY DURATION: 16, Strain/Sex: SPRAGUE-DAWLEY/FEMALE, Target Tissue: Type of Lesion: MAMMARY GLAND: CARCINOMA, Dose [Carcinogen]: 20 MG IN 1 ML SESAME OIL ONCE): 7/10 (70%), 17/21 (81%), -16%, not calculated | tumour outcome (control, treated, inhibition, significance) (Carcinogen: 7,12-DIMETHYLBENZ[A]ANTHRACENE, 57-97-6, Dose [Inhibitor]: 0, 15 MILLIMOLAR IN DRINKING WATER FOR 47 WK BEGINNING 2 WK PRIOR TO CARCINOGEN DOSE (STUDY DURATION: 47 WK), Strain/Sex: SPRAGUE-DAWLEY/FEMALE, Target Tissue: Type of Lesion: MAMMARY GLAND: TUMOR, Dose [Carcinogen]: 5 MG IN 1 ML CORN OIL ONCE): 37/40 (93%), 27/38 (71%), 24%, p<0.05 | tumour outcome (control, treated, inhibition, significance) (Carcinogen: AZOXYMETHANE, 25843-45-2, Dose [Inhibitor]: 0, 2% IN A HIGH FAT LOW FIBER DIET FOR DURATION OF STUDY BEGINNING 3 WK PRIOR TO CARCINOGEN TREATMENT (STUDY DURATION: 3, Strain/Sex: SPRAGUE-DAWLEY/FEMALE, Target Tissue: Type of Lesion: COLON: TUMOR, Dose [Carcinogen]: 15 MG/KG BW 1/WK FOR 2 WK): 65%, 30%, 54%, p<0.05 | tumour outcome (control, treated, inhibition, significance) (Carcinogen: AZOXYMETHANE, 25843-45-2, Dose [Inhibitor]: 0, 2% IN DRINKING WATER BEGINNING 1 WK POST CARCINOGEN DOSE AND CONTINUING FOR DURATION OF STUDY (STUDY DURATION: 36 WK), Strain/Sex: F344/MALE, Target Tissue: Type of Lesion: COLON: CARCINOMA, Dose [Carcinogen]: 30 MG/KG ONCE AT 6 WK OF AGE): 10/12 (83%), 3/12 (25%), 70%, p=0.0045 | tumour outcome (control, treated, inhibition, significance) (Carcinogen: AZOXYMETHANE, 25843-45-2, Dose [Inhibitor]: 1% IN DRINKING WATER BEGINNING 1 WK PRIOR TO FIRST CARCINOGEN DOSE (STUDY DURATION: 9 MO), Strain/Sex: F344/MALE, Target Tissue: Type of Lesion: LARGE INTESTINE: CARCINOMA, Dose [Carcinogen]: 8 MG/KG BW INJECTED IN HIND LEG 1/WK FOR 12 WK): 100%, 100%, 0%, not significant | tumour outcome (control, treated, inhibition, significance) (Carcinogen: AZOXYMETHANE, 25843-45-2, Dose [Inhibitor]: 2% IN DRINKING WATER BEGINNING 2 WK POST LAST CARCINOGEN DOSE (STUDY DURATION: 10 MO), Strain/Sex: F344/MALE, Target Tissue: Type of Lesion: COLON: TUMOR, Dose [Carcinogen]: 8 MG/KG BW INJECTED IN HIND LEG 1/WK FOR 4 WK): 43%, 10%, 77%, not calculated | tumour outcome (control, treated, inhibition, significance) (Carcinogen: N-METHYL-N-NITROSOUREA, 684-93-5, AZOXYMETHANE, 25843-45-2, Carcinogen: N-METHYL-N-NITROSOUREA, 684-93-5, AZOXYMETHANE, 25843-45-2, Dose [Inhibitor]: 0, 2% IN A HIGH FAT LOW FIBER DIET FOR DURATION OF STUDY BEGINNING 2 WK PRIOR TO CARCINOGEN TREATMENT (STUDY DURATION: 3, Strain/Sex: SPRAGUE-DAWLEY/FEMALE, Target Tissue: Type of Lesion: COLON: TUMOR, Dose [Carcinogen]: 50 MG/KG BW MNU ONCE FOLLOWED BY 15 MG/KG BW AOM 1/WK FOR 2 WK): 70%, 30%, 57%, p<0.05 | tumour outcome (control, treated, inhibition, significance) (Carcinogen: N-METHYL-N-NITROSOUREA, 684-93-5, AZOXYMETHANE, 25843-45-2, Carcinogen: N-METHYL-N-NITROSOUREA, 684-93-5, AZOXYMETHANE, 25843-45-2, Dose [Inhibitor]: 0, 2% IN A HIGH FAT LOW FIBER DIET FOR DURATION OF STUDY BEGINNING 2 WK PRIOR TO CARCINOGEN TREATMENT (STUDY DURATION: 3, Strain/Sex: SPRAGUE-DAWLEY/FEMALE, Target Tissue: Type of Lesion: MAMMARY GLAND: CARCINOMA, Dose [Carcinogen]: 50 MG/KG BW MNU ONCE FOLLOWED BY 15 MG/KG BW AOM 1/WK FOR 2 WK): 100%, 50%, 50%, p<0.05 | tumour outcome (control, treated, inhibition, significance) (Carcinogen: N-METHYL-N-NITROSOUREA, 684-93-5, Dose [Inhibitor]: 0, 2% IN HIGH FAT LOW FIBER DIET FOR DURATION OF STUDY BEGINNING 2 WK PRIOR TO CARCINOGEN TREATMENT (STUDY DURATION: 32, Strain/Sex: SPRAGUE-DAWLEY/FEMALE, Target Tissue: Type of Lesion: MAMMARY GLAND: CARCINOMA, Dose [Carcinogen]: 50 MG/KG BW ONCE): 95%, 40%, 58%, p<0.05
